Calls of active or inactive are those of the source.
How the values were obtained:
[1] = target: T1, Neuropeptide Y receptor type 1 (Homo sapiens, UniProt P25929); experiment: Fluorescence-based counterscreen for agonists of NPY-Y2: cell-based high-throughput dose response assay for agonists of NPY-Y1.; type: functional
T1 sequence (P25929 whole entry): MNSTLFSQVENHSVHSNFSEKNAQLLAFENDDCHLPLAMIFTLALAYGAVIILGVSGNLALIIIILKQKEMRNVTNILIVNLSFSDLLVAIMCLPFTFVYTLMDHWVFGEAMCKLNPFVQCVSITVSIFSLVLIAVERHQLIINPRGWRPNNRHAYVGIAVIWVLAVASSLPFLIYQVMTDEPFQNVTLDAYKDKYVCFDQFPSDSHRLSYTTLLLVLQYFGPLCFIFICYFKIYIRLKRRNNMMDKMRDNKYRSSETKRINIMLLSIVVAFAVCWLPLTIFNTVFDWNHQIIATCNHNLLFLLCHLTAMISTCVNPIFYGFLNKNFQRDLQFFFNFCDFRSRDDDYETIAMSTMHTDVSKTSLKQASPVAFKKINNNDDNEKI

[2] = target: T2, Neuropeptide Y receptor type 2 (Homo sapiens, UniProt P49146); experiment: Fluorescence-based cell-based high-throughput dose response assay for agonists of NPY-Y2. [Related pubchem assays: 1703 (Screening assay (CNGC inhibitors).), 1359 (Screening assay (NPY-Y2 potentiators or agonists).), 1304 (Screening assay (NPY-Y1 potentiators or agonists).), 1710 (Screening assay (NPY-Y2 agonists).), 1791 (Summary AID.)]; type: functional
T2 sequence (P49146 whole entry): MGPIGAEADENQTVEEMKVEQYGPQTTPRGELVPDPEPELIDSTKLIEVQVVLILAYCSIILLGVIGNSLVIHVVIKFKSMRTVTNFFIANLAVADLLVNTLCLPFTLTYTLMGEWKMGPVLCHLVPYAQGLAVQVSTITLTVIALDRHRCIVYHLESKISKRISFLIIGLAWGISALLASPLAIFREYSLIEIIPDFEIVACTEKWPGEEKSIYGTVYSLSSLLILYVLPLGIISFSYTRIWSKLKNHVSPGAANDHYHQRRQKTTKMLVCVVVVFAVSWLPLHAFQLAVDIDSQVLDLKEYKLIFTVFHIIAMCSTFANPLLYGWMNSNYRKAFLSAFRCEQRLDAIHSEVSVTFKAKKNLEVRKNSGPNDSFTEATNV

[3] = test system: HEK293; experiment: Fluorescence-based counterscreen for potentiators or agonists of NPY-Y2: cell-based high-throughput dose response assay to identify inhibitors of cyclic nucleotide gated ion channel (CNGC) activity. In this assay, the parental HEK293 cell line transfected with a cyclic-nucleotide gated ion channel (CNGC)-based cAMP sensor is used to measure inhibition of isoproterenol-induced CNGC activity by test compound.; type: functional; details: Homo sapiens;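 also: stimulus is 1 µM isoproterenol at EC100 plus PDE inhibitor Ro 20-1724 at 25 µM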
[4] = target: 72 kDa type IV collagenase (Homo sapiens, UniProt P08253); experiment: Dose Response validation of uHTS RPN11 inhibitor hits using a MMP-2 Fluorescence assay.; type: functional
Chain of 72 kDa type IV collagenase (P08253 whole entry): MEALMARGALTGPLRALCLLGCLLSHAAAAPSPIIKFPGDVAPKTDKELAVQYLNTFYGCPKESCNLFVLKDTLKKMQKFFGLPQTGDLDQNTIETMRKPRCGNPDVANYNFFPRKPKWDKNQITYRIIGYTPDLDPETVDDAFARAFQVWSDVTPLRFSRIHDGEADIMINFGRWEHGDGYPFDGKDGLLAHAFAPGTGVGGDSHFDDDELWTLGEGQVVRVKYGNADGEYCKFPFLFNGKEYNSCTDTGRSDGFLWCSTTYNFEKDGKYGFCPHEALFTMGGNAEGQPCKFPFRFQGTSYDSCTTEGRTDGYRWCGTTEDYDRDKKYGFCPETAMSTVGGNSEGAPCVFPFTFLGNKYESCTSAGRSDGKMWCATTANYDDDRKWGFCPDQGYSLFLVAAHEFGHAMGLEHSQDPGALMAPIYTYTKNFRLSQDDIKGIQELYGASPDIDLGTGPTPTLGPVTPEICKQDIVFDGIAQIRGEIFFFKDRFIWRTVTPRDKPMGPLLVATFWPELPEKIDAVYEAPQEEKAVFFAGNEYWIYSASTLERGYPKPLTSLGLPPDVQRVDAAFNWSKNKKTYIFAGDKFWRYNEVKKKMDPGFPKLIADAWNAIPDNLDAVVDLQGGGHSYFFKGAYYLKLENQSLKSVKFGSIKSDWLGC

[5] = target: T3, Cysteine protease ATG4B (Homo sapiens, UniProt Q9Y4P1); type: functional;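 also: Fluorescence-based dose-response confirmation assay measuring inhibition of ATG4B activity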
T3 sequence (Q9Y4P1 whole entry): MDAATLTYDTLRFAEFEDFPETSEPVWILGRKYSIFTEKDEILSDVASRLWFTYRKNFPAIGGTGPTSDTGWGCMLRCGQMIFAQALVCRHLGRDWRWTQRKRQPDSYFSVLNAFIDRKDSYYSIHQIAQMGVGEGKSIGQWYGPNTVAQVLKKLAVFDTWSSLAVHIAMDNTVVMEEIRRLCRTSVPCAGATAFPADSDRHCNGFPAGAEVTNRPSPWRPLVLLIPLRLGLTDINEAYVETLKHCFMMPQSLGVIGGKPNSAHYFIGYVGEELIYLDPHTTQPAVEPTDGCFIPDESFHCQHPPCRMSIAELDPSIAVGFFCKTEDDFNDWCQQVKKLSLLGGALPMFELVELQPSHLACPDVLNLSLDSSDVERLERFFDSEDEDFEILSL

[6] = target: 26S proteasome non-ATPase regulatory subunit 14 (Homo sapiens, UniProt O00487); experiment: inhibition of proteasome subunit RPN11 – biochemical, fluorescence polarization, uHTS hits, confirmation (AID 602368); type: functional
Chain of 26S proteasome non-ATPase regulatory subunit 14 (O00487 whole entry): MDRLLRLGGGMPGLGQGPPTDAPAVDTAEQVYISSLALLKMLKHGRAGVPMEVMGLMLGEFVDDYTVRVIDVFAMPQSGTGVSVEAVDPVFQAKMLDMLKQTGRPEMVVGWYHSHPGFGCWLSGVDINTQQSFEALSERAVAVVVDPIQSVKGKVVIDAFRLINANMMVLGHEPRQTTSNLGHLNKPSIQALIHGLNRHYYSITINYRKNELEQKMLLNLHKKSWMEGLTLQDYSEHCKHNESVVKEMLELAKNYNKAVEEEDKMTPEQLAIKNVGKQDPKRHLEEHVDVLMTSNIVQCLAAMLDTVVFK

[7] = IC50 of Artemis nuclease activity blockers – biochemical, fluorescence intensity, dose response (AID 720701); type: functional;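 also: Artemis endonuclease enzyme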
[8] = target: T4, Aminopeptidase N (Plasmodium falciparum FcB1/Columbia, UniProt O96935); experiment: malaria alanyl aminopeptidase activity blockers – biochemical, fluorogenic H-Leu-NHMec substrate, 1536-well (AID 1445); set-up: species or system Plasmodium falciparum 3D7, 3D7
T4 sequence (O96935 whole entry): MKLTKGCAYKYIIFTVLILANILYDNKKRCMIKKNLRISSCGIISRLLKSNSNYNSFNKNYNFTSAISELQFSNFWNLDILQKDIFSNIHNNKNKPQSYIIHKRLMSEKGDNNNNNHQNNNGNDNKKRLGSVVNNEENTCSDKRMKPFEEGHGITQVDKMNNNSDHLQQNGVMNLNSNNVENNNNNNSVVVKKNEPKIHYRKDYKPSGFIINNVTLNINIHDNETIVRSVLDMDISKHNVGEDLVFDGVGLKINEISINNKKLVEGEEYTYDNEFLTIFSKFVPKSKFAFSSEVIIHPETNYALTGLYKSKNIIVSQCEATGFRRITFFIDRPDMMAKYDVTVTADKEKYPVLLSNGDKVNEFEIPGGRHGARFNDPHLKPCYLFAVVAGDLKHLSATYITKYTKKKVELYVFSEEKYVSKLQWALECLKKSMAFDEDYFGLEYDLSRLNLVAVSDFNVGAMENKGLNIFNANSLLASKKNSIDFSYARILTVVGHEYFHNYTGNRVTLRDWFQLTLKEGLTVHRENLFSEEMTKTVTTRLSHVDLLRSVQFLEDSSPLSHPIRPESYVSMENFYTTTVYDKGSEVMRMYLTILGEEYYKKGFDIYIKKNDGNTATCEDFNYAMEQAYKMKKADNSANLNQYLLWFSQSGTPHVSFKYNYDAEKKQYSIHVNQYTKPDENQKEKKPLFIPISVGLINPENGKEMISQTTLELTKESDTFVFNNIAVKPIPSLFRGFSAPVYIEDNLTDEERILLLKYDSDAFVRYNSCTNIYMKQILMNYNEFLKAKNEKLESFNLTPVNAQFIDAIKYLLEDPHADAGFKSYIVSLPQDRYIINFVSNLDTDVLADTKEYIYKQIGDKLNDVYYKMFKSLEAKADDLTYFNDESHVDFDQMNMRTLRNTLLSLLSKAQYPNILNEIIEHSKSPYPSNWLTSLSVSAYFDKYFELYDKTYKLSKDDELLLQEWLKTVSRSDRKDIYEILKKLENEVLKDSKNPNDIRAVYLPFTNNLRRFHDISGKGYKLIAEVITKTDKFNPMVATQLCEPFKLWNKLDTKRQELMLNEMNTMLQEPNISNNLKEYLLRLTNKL

[9] = target: Bcl-2-like protein 1 (Homo sapiens, UniProt Q07817); experiment: blockers of BCLXL peptide binding – biochemical, fluorescence polarization, 1536-well, selectivity assay for MCL1 inhibitor project, dose response (AID 2218)
Chain of Bcl-2-like protein 1 (Q07817 whole entry, the tested form may be a part): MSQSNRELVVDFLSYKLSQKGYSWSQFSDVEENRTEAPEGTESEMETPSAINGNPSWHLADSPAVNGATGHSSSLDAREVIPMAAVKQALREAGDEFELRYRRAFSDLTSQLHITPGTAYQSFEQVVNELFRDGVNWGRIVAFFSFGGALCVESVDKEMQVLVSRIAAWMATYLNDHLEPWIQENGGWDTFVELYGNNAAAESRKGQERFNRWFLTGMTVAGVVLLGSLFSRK

[10] = CCR5-tropic HIV-1 fusion blockers – cell-based, CCR5-tropic Env, dose response (AID 2279); type: functional
[11] = target: T5, SUMO-activating enzyme (Homo sapiens, UniProt Q9UBT2); experiment: blockers of SAE1/SAE2–UBC9 SUMO transfer – biochemical, HTRF, uHTS, primary screen (AID 2006); type: protein-complex assay
T5 sequence (Q9UBE0 whole entry): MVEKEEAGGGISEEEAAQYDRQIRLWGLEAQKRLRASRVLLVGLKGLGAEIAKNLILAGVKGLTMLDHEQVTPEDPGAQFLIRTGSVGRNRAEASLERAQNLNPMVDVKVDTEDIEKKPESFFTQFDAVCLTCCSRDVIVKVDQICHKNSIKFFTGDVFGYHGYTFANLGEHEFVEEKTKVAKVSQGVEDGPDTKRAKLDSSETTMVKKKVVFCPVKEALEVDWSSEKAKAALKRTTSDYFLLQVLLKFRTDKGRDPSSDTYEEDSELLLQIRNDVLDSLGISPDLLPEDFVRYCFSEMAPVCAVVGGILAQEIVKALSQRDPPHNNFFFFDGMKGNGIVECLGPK
T5 sequence (Q9UBT2 whole entry): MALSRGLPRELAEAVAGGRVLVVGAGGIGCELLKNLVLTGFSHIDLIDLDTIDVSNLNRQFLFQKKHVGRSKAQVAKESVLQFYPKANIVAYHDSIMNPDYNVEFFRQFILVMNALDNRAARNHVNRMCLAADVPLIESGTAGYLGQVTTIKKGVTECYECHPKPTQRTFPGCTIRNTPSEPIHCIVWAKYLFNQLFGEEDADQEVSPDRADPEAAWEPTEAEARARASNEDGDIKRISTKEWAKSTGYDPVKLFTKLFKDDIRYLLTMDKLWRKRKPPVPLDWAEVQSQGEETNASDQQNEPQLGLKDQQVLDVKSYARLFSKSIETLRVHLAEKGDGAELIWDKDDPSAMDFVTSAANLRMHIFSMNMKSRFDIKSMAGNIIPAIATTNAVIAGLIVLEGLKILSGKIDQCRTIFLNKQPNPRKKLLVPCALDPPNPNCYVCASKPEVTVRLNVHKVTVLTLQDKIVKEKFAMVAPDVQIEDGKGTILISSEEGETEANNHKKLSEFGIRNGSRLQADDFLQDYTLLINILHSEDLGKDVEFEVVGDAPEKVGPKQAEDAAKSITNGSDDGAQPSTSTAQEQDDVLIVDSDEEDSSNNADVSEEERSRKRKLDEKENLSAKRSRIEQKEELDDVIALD

[12] = target: T6, Methionyl-tRNA synthetase, putative (Trypanosoma brucei brucei, UniProt Q38C91); type: functional, Trypanosoma brucei brucei strain 927/4 GUTat10.1
T6 sequence (Q38C91 whole entry): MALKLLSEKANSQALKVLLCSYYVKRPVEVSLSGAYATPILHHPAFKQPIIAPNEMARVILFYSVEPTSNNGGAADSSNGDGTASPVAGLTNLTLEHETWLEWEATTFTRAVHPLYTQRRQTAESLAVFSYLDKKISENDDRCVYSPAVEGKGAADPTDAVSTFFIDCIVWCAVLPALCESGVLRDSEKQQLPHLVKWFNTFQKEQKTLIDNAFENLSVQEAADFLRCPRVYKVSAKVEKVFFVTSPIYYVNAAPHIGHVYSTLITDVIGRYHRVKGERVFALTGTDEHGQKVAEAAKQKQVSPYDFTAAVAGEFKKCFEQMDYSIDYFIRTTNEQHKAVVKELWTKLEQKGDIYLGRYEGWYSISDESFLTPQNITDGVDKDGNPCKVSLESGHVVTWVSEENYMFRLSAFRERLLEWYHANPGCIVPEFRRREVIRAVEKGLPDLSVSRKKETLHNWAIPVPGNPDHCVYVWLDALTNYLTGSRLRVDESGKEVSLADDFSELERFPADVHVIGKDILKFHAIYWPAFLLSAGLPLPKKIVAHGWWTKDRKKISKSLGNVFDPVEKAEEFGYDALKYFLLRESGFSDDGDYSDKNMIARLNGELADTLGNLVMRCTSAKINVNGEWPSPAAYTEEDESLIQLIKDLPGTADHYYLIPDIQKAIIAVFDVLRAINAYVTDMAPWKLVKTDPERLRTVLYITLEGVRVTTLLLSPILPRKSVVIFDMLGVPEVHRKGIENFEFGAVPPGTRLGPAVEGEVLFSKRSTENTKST

[13] = target: Large T antigen (Simian virus 40, UniProt P03070); type: functional, Betapolyomavirus macacae;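 also: Confirmatory-stage PubChem screen for compounds that inhibit SV40 T antigen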
Chain of Large T antigen (P03070 whole entry): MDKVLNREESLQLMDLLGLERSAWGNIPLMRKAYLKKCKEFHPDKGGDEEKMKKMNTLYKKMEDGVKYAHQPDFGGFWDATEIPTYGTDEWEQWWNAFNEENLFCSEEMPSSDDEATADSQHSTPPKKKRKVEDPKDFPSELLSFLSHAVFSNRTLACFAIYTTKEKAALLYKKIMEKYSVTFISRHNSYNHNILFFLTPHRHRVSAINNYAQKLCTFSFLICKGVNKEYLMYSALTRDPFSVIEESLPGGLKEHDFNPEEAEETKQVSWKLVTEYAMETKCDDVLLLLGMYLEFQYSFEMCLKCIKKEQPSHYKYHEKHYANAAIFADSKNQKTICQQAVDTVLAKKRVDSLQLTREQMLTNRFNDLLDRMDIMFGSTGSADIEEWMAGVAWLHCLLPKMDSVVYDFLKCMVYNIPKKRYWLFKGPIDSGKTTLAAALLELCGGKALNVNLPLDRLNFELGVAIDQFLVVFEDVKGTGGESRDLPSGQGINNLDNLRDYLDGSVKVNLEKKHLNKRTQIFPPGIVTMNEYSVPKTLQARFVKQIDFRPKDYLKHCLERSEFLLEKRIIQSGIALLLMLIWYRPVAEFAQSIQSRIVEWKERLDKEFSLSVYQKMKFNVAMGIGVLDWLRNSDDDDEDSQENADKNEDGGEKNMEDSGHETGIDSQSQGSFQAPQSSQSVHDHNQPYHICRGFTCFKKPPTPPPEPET

[14] = target: Phospholipase A2 (Homo sapiens, UniProt P04054); type: functional;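 also: confirmatory dose-response counterscreen on phospholipase A2, testing hits that came from an ultra-high-throughput screen for ATG4B inhibitors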
[15] = target: Genome polyprotein (dengue virus type 2, UniProt P29990); experiment: flavivirus cap methylation enzyme inhibition – biochemical, confirmation dose response, primary screen (AID 588689); type: functional
Chain of Genome polyprotein (P29990 2492-3391 limits assumed): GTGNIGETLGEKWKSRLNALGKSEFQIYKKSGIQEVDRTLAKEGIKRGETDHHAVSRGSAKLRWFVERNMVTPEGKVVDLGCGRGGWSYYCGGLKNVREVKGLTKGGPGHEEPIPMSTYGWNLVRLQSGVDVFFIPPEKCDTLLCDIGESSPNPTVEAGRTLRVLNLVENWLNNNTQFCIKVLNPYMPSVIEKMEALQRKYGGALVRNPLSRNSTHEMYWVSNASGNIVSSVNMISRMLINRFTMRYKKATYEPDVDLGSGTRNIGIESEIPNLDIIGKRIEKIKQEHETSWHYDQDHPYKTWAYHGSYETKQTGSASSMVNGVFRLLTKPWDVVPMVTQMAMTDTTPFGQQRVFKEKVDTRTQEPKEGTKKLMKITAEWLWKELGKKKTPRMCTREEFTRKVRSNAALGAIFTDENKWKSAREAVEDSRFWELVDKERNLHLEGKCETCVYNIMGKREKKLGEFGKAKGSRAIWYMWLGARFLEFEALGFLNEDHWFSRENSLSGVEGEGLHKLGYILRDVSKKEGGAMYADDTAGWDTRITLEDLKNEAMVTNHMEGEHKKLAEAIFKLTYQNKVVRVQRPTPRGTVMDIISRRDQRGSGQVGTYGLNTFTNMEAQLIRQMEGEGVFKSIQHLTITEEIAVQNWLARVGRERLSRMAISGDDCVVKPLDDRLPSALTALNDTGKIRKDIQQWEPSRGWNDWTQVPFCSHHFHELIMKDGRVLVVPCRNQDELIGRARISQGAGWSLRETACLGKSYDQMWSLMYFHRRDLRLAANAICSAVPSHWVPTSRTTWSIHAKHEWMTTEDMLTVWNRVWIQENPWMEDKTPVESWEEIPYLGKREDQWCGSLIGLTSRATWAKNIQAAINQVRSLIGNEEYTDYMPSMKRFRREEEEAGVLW

[16] = test system: Vero; experiment: viability of Vero cells under compound – cytotoxicity control for flavivirus capping enzyme inhibitors (AID 588742); type: functional; details: Chlorocebus sabaeus
[17] = Counterscreen for inhibitors of Trypanosoma brucei methionyl tRNA synthetase (MetRS): Luminescence-based cell-based high throughput dose response assay to identify compounds that are cytotoxic to Jurkat human T lymphocyte cells.; type: functional
[18] = target: T7, Induced myeloid leukemia cell differentiation protein Mcl-1 (Homo sapiens, UniProt Q07820); type: functional
T7 sequence (Q07820 whole entry): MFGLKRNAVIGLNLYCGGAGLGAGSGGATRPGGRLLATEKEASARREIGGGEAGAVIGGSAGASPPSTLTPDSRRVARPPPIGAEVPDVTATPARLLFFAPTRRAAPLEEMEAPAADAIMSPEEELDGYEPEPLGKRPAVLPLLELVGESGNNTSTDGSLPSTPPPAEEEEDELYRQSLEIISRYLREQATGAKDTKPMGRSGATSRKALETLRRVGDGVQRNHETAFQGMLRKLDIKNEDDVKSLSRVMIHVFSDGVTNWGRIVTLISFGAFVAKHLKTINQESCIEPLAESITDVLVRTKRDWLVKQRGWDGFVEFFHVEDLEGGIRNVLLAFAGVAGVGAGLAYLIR

[19] = target: T5, SUMO-activating enzyme; experiment: blockers of UBC9-mediated SUMO conjugation – biochemical, AlphaScreen, SUMOylation inhibitor project, confirmation (AID 2018); type: functional
[20] = target: T7, Induced myeloid leukemia cell differentiation protein Mcl-1; experiment: blockers of MCL1 binding to BIM peptide – biochemical, fluorescence polarization, BIM-BH3 peptide, 1536-well, dose response (AID 2217)
[21] = target: Prothrombin (Bos taurus, UniProt P00735); experiment: thrombin protease inhibitors – biochemical, fluorescence polarization, uHTS hits, dose response (AID 602369); type: functional
[22] = target: T6, Methionyl-tRNA synthetase, putative; type: functional, Trypanosoma brucei brucei strain 927/4 GUTat10.1; remark: listed apart in the source

## O=C1C2CC=CCC2C(=O)N1c1ccc(NCCc2ccc(O)cc2)c([N+](=O)[O-])c1 (configuration not stated)
[1]
  EC50: 26.5 µM (not active)
[2]
  EC50: > 35.4 µM (not active)
[3]
  EC50: 15.3 µM (not active)

## O=C(N/N=C/c1ccc(-c2ccc(S(=O)(=O)Nc3ncccn3)cc2)o1)c1cc2ccccc2cc1O
[4]
  IC50: > 100 µM (inactive)
[5]
  IC50: 5.98 µM (active)
[6]
  IC50: 33.3 µM (active)
[7]
  IC50: 11.4 µM (active)
[8]
  IC50: 42.3 µM (active)
[9]
  IC50: > 109 µM (not active)
[10]
  IC50: 17 µM (active)
[11]
  IC50: 12.4 µM (active)
[12]
  IC50: 15.8 µM (inactive)
[13]
  IC50: 52.8 µM (active)
[14]
  IC50: 20.3 µM (inactive)
[15]
  IC50: 76.5 µM (active)
[16]
  CC50: 26 µM (active)
[17]
  IC50: 83.3 µM (inactive)
[18]
  IC50: 1.63 µM (active)
[19]
  IC50: 2.21 µM (active)
[20]
  IC50: > 4.03 µM (active)
[21]
  IC50: 75.6 µM (active)
[22]
  IC50: 18.6 µM (inactive)

From ChEMBL document CHEMBL1201862, “PubChem BioAssay data set” (2004)
